Here are results for 24 molecules from patent publication US5135955A, “Propanamine derivatives” (Eli Lilly and Company, priority 1989, dated 1992).

Counter-ions that a name gives are not always drawn. Where only a bound is given, the exact number is not on record here.

Assay [1] relates to Trichophyton mentagrophytes CDC27. The assay is described as follows: in vitro antifungal activity, Trichophyton mentagrophytes (MIC). Type of assay: cell-based. The note with it: 35° C., 48 hours, RPMI 1640 plus 10% fetal calf serum, 95-100% inhibition of growth, read-out: minimum inhibitory concentration (MIC), T.m. As for the experimental part:
(§1) The antifungal activity was assayed in vitro against Candida abicans A26, Trichophyton mentagrophytes CDC27, and Aspergillus flavus M152. The inocula, previously frozen under liquid nitrogen in a lactose, glycerol and water solution, were standardized by counting spores with a hemocytometer. Final concentrations (C. albicans, 1×10^5 cells/m; T. mentagrophytes, 1×10^6 cells/ml; A. flavus, 1×10^5 cells/ml) in RPMI 1640 plus 10% fetal calf serum were added to each of the 96 wells of a microtiter plate (100 μl/well).The compounds to be tested were solubilized in either water or ethanol and added to the microtiter wells in serial dilutions to give final concentrations in the range 0.039-20 μg/ml. The plates were incubated at 35° C. for 48 hours. The minimum inhibitory concentration (MIC) values were determined as the highest dilution showing 95-100% inhibition of growth.
(§2) ^a Minimum inhibitory concentration expressed in μg/ml
^d T.m. means Trichophyton mentagrophytes CDC27

Assay [2] deals with Aspergillus flavus M152. Kind of assay: in vitro antifungal activity, Aspergillus flavus (MIC). It counts as cell-based. The note with it: 35° C., 48 hours, RPMI 1640 plus 10% fetal calf serum, 95-100% inhibition of growth, read-out: minimum inhibitory concentration (MIC), A.f. Here is the method: as §1, §2
^c A.f. means Aspergillus flavus M152

Assay [3] has as its system Candida albicans A26. The assay is described as follows: in vitro antifungal activity, Candida albicans (MIC). The note with it: 35° C., 48 hours, RPMI 1640 plus 10% fetal calf serum, 95-100% inhibition of growth, read-out: minimum inhibitory concentration (MIC), C.a. Type of assay: cell-based. As for the experimental part:
as §1, §2
^b C.a. means Candida albicans A26

The test system of assay [4] is thromboplastin clotting time in human plasma. The assay is described as follows: prothrombin time test (thromboplastin clotting time in human plasma). It counts as biochemical. The note with it: 37° C., human plasma. Here is the method: Briefly, to 0.1 ml of each of human plasma, normal saline and thromboplastin was added 0.03 ml of the test compound of the present invention (2 mg/ml in 50 percent methanol). The clotting time was measured at 37° C. with a Fibrometer.
^a Expressed in seconds
^b Concentration of compound tested in micrograms per milliliter of […]

[5] abbreviates: 180 micrograms per milliliter of plasma.
Where [6] appears, read: 45 micrograms per milliliter of plasma.
Setting [7] is: 90 micrograms per milliliter of plasma.

Regarding `CC(CCc1ccc(OCCN(C)C)cc1)N(C)C` (stereo not drawn) [Example 58, 4-[2-(Dimethylamino)ethoxy]-N,N,α-trimethylbenzenepropylamine dihydrochloride], the MIC worked out at 10 µg/mL in assay [1], 20 µg/mL in assay [2] and 1.25 µg/mL in assay [3].
For `CCCCCCOc1ccc(CC(c2ccc(OC)cc2)C(C)N)cc1` (stereo not drawn) [Example 72, 4-(Hexyloxy)-β-4-methoxyphenyl-αmethylbenzenepropanamine hydrochloride] the same measures were 5 µg/mL, 10 µg/mL and 10 µg/mL.
For `CCCS(=O)(=O)Oc1ccc(CCC(C)N(C)C)cc1` (stereo not shown) [Example 67] the same measures were more than 20 µg/mL, 20 µg/mL and 20 µg/mL.
For `CCCCOc1ccc(CCC(C)N(C)CC)cc1` (stereo not drawn) [Example 68, 4-Butoxy-N-ethyl-N,α-dimethylbenzenepropanamine hydrochloride], the MIC is 1.25 µg/mL in assay [1], 0.625 µg/mL in assay [2] and 0.625 µg/mL in assay [3].
With `CC(CCc1ccc(OS(=O)(=O)c2ccccc2)cc1)N(C)C` (stereo not shown) [Example 66, Benzenesulfonic acid 4-[3-(dimethylamino)butyl]phenylester], the MIC in assay [1] turned out to be 5 µg/mL; in assay [2] it was 20 µg/mL; in assay [3] it was 10 µg/mL.
For `CC(CCc1ccc(OCC(=O)C(C)(C)C)cc1)N(C)C` (stereo not shown) [Example 60, 3,3-Dimethyl-1-[4-[3-(dimethylamino)-1-butyl]phenoxy]-2-butenone hydrochloride] the same measures were 0.625 µg/mL, 10 µg/mL and 10 µg/mL.
The like results for `CC(CCc1ccc(OCCC2CCCCC2)cc1)NCCN(C)C` (stereo not shown) [Example 46, N'-[3-[4-(2-Cyclohexylethoxy)phenyl]-1-methylpropyl]-N,N-dimethyl-1,2-ethanediamine dihydrochloride] were, in that order, 10 µg/mL, 20 µg/mL and 10 µg/mL.
For `CC(CCc1ccc(OCc2ccccc2)cc1)N(C)C` (stereo not drawn) [Example 84, N,N,α-Trimethyl-4-(phenylmethoxy)benzene propanamine hydrochloride] the same measures were 0.312 µg/mL, 10 µg/mL and 0.156 µg/mL.
Consider `CC(CCc1ccc(OCCn2ccnc2)cc1)N(C)C` (stereo not drawn) [Example 61, N,N,α-Trimethyl-4-[2-(1H-imidazol-1-yl)ethoxy]benzenepropanamine], for which the MIC in assay [1] was 10 µg/mL; in assay [2], more than 20 µg/mL; in assay [3], 5 µg/mL.
The like results for `CCCCOc1ccc(CCC(C)N2CC(C)OC(C)C2)cc1` (stereo not shown) [Example 69, 4-[3-(4-Butoxyphenyl)-1-methylpropyl]-2,6-dimethylmorpholine hydrochloride] were, in that order, 1.25 µg/mL, more than 20 µg/mL and more than 20 µg/mL.
For `CC(CCc1ccc(OCCC(C)(C)C)cc1)N(C)C.Cl` (stereo not shown) [Example 75, 4-(3,3-Dimethylbutoxy)-N,N,αtrimethylbenzenepropanamine hydrochloride], the plasma prothrombin time in assay [4] (11 micrograms per milliliter of plasma, hydrochloride) was found to be 18 s; in assay [4] (22 micrograms per milliliter of plasma, hydrochloride), 23 s; in assay [4] (45 micrograms per milliliter of plasma, hydrochloride) it was 32 s; in assay [4] (90 micrograms per milliliter of plasma, hydrochloride) it was 52 s; in assay [4] (setting [5]), 90 s.
As to `CCCCCOc1ccc(CC(CN)c2ccc(-c3ccccc3)cc2)cc1.Cl` (stereo not drawn) [Example 12, β-[[4-(Pentyloxy)phenyl]methyl][1,1'-biphenyl]-4-ethanamine hydrochloride], the plasma prothrombin time in assay [4] (setting [6]) is 21 s; in assay [4] (setting [7]), 33 s; in assay [4] (setting [5]), 75 s.
The like results for `CCCCCCOc1ccc(CC(CNC)c2ccccc2)cc1` (stereo not drawn) [Example 29, N-Methyl-4-(hexyloxy)-β-phenylbenzenepropanamine] were, in that order, 17 s, 31 s and 87 s.
Regarding `COc1cccc(C(CN)Cc2ccc3ccccc3c2)c1OC` (stereo not drawn) [Example 25, β-(2,3-Dimethoxyphenyl)-2-naphthalenepropanamine], the plasma prothrombin time in assay [4] (setting [6]) was 22 s; in assay [4] (setting [7]), 29 s; in assay [4] (setting [5]), 50 s.
For `CCCCCCCOc1ccc(CC(CN)c2ccccc2)cc1.Cl` (stereo not drawn) [Example 5, 4-(Heptyloxy)-β-phenylbenzenepropanamine hydrochloride] the same measures were 25 s, 53 s and 190 s.
For `CCCCCCCCOc1ccc(CC(CN)c2ccc(-c3ccccc3)cc2)cc1` (racemic) [Example 11, (±)-β-[[4-(Octyloxy)phenyl]methyl][1,1'-biphenyl-4-ethanamine hydrochloride], in assay [4] (setting [5]), the plasma prothrombin time is 20 s.
As for `COCCOc1ccc(CCC(C)N(C)C)cc1.Cl` (stereo not drawn) [Example 76, 4-(2-Methoxyethoxy)-N,N,α-trimethylbenzenepropanamine hydrochloride], the plasma prothrombin time in assay [4] (setting [6]) amounted to 17 s; in assay [4] (setting [7]) it was 17 s; in assay [4] (setting [5]), 18 s.
`CC(C)c1ccc(CC(CN)c2ccccc2)cc1.Cl` (stereo not drawn) [Example 14, 4-(1-Methylethyl)-β-phenylbenzenepropanamine hydrochloride] came in with a plasma prothrombin time in assay [4] (setting [5]) of 101 s.
Consider `COc1ccc(C(CN)Cc2ccc(-c3ccccc3)cc2)cc1OC` (stereo not drawn) [Example 8, β-(3,4-Dimethoxy)phenyl[1,1'-biphenyl]-4-propanamine hydrochloride], for which the plasma prothrombin time in assay [4] (setting [6]) is 23 s; in assay [4] (setting [7]) it was 45 s; in assay [4] (setting [5]), 130 s.
As to `CCCCCCOc1ccc(CC(CNC(C)C)c2ccccc2)cc1.Cl` (stereo not drawn) [Example 30, N-Isopropyl-4-(hexyloxy)-β-phenylbenzenepropanamine hydrochloride], the plasma prothrombin time in assay [4] (setting [5]) stood at 69 s.
On the same count and under the same terms, in the case of `CCCCCCCOc1ccc(CC(CN)c2ccc(C(CN)Cc3ccc(OCCCCCCC)cc3)cc2)cc1.Cl.Cl` (stereo not drawn) [Example 13, β,β'-Bis[[4-(heptyloxy)phenyl]methyl]-1,4-benzenediethanamine dihydrochloride] it was 200 s.
`CC(CCc1ccc(OCC2CCCC2)cc1)N(C)C` (stereo not drawn) [Example 81, 4-Cyclopentylmethoxy-N,N-α-trimethylbenzenepropanamine]: the plasma prothrombin time in assay [4] (setting [6]) was 20 s; in assay [4] (setting [7]) it was 25 s; in assay [4] (setting [5]), 47 s.
In the case of `CC(CCc1ccc(C(C)(C)C)cc1)N(C)C.Cl` (stereo not drawn) [Example 83, 4-(1,1-Dimethylethyl)-N,N,α-trimethylbenzenepropanamine hydrochloride], the figures for the plasma prothrombin time in assay [4] (setting [6]), in assay [4] (setting [7]) and in assay [4] (setting [5]) were 21 s, 26 s and 37 s, respectively.
Regarding `COc1ccc(C(CN)Cc2ccc(OC)c3ccccc23)cc1OC` (stereo not drawn) [Example 23, β(3,4-Dimethoxy)phenyl-1-(4-methoxy)naphthalenepropanamine hydrochloride], in assay [4] (setting [5]), the plasma prothrombin time came out at 101 s.
